Laboratory results from the CombiSolv-Exp solvation set (Vermeire and Green 2021).
Blank lines part the entries; values can stand above or below the compound they belong to.

Test: solvent given as SMILES

SMILES: Brc1ccc(Br)cc1
solvation free energy, 298 K (in CC(C)(C)O): -6.86 kcal/mol
solvation free energy, 298 K (in CC(C)CCO): -7.01 kcal/mol
solvation free energy, 298 K (in CC(C)CO): -6.92 kcal/mol
solvation free energy, 298 K (in CCC(C)O): -6.94 kcal/mol
solvation free energy, 298 K (in CCCC(C)O): -6.98 kcal/mol
solvation free energy, 298 K (in CCCCCC): -7.25 kcal/mol
solvation free energy, 298 K (in CCCCCCC): -7.55 kcal/mol
solvation free energy, 298 K (in CCCCCCCCC=CCCCCCCCC(=O)OCC(COC(=O)CCCCCCCC=CCCCCCCCC)OC(=O)CCCCCCCC=CCCCCCCCC): -7.01 kcal/mol
solvation free energy, 298 K (in CCCCCCCCO): -7.11 kcal/mol
solvation free energy, 298 K (in CCCCOCCCC): -7.74 kcal/mol
solvation free energy, 298 K (in CCOCC): -8.21 kcal/mol
solvation free energy, 298 K (in COC(C)(C)C): -7.73 kcal/mol
solvation free energy, 298 K (in ClC(Cl)(Cl)Cl): -7.9 kcal/mol

SMILES: CC(C)(C)C(=O)CC(=O)C(C)(C)C
solvation free energy, 298 K (in O): -4.43 kcal/mol

SMILES: O=C(O)c1cccc([N+](=O)[O-])c1C(=O)O
solvation free energy, 298 K (in C1CCOC1): -19.1 kcal/mol
solvation free energy, 298 K (in C1COCCO1): -18.7 kcal/mol
solvation free energy, 298 K (in CC(C)=O): -18.5 kcal/mol
solvation free energy, 298 K (in CC(C)CO): -17.8 kcal/mol
solvation free energy, 298 K (in CC(C)O): -18.4 kcal/mol
solvation free energy, 298 K (in CCC(C)O): -18.1 kcal/mol
solvation free energy, 298 K (in CCCCCCCO): -17.6 kcal/mol
solvation free energy, 298 K (in CCCCCCO): -17.7 kcal/mol
solvation free energy, 298 K (in CCCCCO): -17.8 kcal/mol
solvation free energy, 298 K (in CCCCO): -17.9 kcal/mol
solvation free energy, 298 K (in CCCO): -18.3 kcal/mol
solvation free energy, 298 K (in CCOC(C)=O): -17.3 kcal/mol
solvation free energy, 298 K (in COC(C)=O): -18.2 kcal/mol
solvation free energy, 298 K (in O): -17.3 kcal/mol

SMILES: Clc1cc(Cl)c(-c2ccccc2)cc1Cl
solvation free energy, 298 K (in CCCCCCCCO): -10.6 kcal/mol

SMILES: O=C(CCCN1CCC(O)(c2ccc(Cl)cc2)CC1)c1ccc(F)cc1
solvation free energy, 298 K (in CCCCOC(C)=O): -19.5 kcal/mol
solvation free energy, 298 K (in O): -15.4 kcal/mol

SMILES: ClCCCCl
solvation free energy, 298 K (in CC(C)=O): -5.63 kcal/mol
solvation free energy, 298 K (in CCCCCC): -4.43 kcal/mol
solvation free energy, 298 K (in ClC(Cl)(Cl)Cl): -5.2 kcal/mol
solvation free energy, 298 K (in O): -1.89 kcal/mol

SMILES: CCC(C)C(=O)OC1CC(C)C=C2C=CC(C)C(CCC3CC(O)CC(=O)O3)C21 (centres undefined)
solvation free energy, 298 K (in CC(=O)OC(C)C): -24.9 kcal/mol
solvation free energy, 298 K (in CC(=O)OCC(C)C): -24.8 kcal/mol
solvation free energy, 298 K (in CC(C)=O): -25.7 kcal/mol
solvation free energy, 298 K (in CCC(C)=O): -25.6 kcal/mol
solvation free energy, 298 K (in CCC(C)OC(C)=O): -24.9 kcal/mol
solvation free energy, 298 K (in CCCCCCCCO): -24.6 kcal/mol
solvation free energy, 298 K (in CCCCCCO): -24.8 kcal/mol
solvation free energy, 298 K (in CCCCCO): -24.9 kcal/mol
solvation free energy, 298 K (in CCCCO): -25.2 kcal/mol
solvation free energy, 298 K (in CCCCOC(C)=O): -24.9 kcal/mol
solvation free energy, 298 K (in CCCO): -25.2 kcal/mol
solvation free energy, 298 K (in CCCOC(C)=O): -25.1 kcal/mol
solvation free energy, 298 K (in CCO): -25.1 kcal/mol
solvation free energy, 298 K (in CCOC(C)=O): -25.1 kcal/mol
solvation free energy, 298 K (in CO): -25.2 kcal/mol
solvation free energy, 298 K (in COC(C)=O): -25.1 kcal/mol

SMILES: c1ccc2c(c1)OCCOCCOc1ccccc1OCCOCCO2
solvation free energy, 298 K (in Cc1cccc(C)c1): -21.7 kcal/mol
solvation free energy, 298 K (in O): -18.2 kcal/mol

SMILES: CC(C)(Cl)Cl
solvation free energy, 298 K (in O): -0.43 kcal/mol

SMILES: O=Cc1ccccc1
solvation free energy, 298 K (in CCCCCC): -5.53 kcal/mol
solvation free energy, 298 K (in CCCCCCC): -5.5 kcal/mol
solvation free energy, 298 K (in CCCCCCCCCCCCCCCC): -5.37 kcal/mol
solvation free energy, 298 K (in O): -4.02 kcal/mol

SMILES: CCCCCCCCCCCCOC(=O)c1ccccc1C(=O)OCCCCCCCCCCCC
solvation free energy, 298 K (in O): -5.92 kcal/mol

SMILES: C#C
solvation free energy, 298 K (in C1COCCO1): -1.71 kcal/mol
solvation free energy, 298 K (in CC(C)=O): -1.83 kcal/mol
solvation free energy, 298 K (in CC(C)CC(C)(C)C): -0.37 kcal/mol
solvation free energy, 298 K (in CCCCCC): -0.52 kcal/mol
solvation free energy, 298 K (in CCCCO): -0.82 kcal/mol
solvation free energy, 298 K (in CN(C)C=O): -1.75 kcal/mol
solvation free energy, 298 K (in CO): -1.42 kcal/mol
solvation free energy, 298 K (in COC(C)=O): -1.76 kcal/mol
solvation free energy, 298 K (in Cc1ccc(C)cc1): -0.8 kcal/mol
solvation free energy, 298 K (in ClC(Cl)(Cl)Cl): -0.65 kcal/mol
solvation free energy, 298 K (in O): 0 kcal/mol

SMILES: C=CC(C)CCCC(C)CCCC(C)CCCC(C)C (centres undefined)
solvation free energy, 298 K (in O): 3.75 kcal/mol

SMILES: c1ccncc1
solvation free energy, 298 K (in C1COCCO1): -5.69 kcal/mol
solvation free energy, 298 K (in CC(=O)N(C)C): -5.76 kcal/mol
solvation free energy, 298 K (in CC(C)(C)O): -5.4 kcal/mol
solvation free energy, 298 K (in CC(C)=O): -5.42 kcal/mol
solvation free energy, 298 K (in CC(C)CC(C)(C)C): -4.03 kcal/mol
solvation free energy, 298 K (in CC(C)CO): -5.67 kcal/mol
solvation free energy, 298 K (in CC(C)O): -5.27 kcal/mol
solvation free energy, 298 K (in CCC(C)=O): -5.37 kcal/mol
solvation free energy, 298 K (in CCC(C)O): -5.63 kcal/mol
solvation free energy, 298 K (in CCCCCC): -4.19 kcal/mol
solvation free energy, 298 K (in CCCCCCCCCCCCCCCC): -4.04 kcal/mol
solvation free energy, 298 K (in CCCCCCCCO): -5.32 kcal/mol
solvation free energy, 298 K (in CCCCN(C=O)CCCC): -5.32 kcal/mol
solvation free energy, 298 K (in CCCCO): -5.39 kcal/mol
solvation free energy, 298 K (in CCCO): -5.44 kcal/mol
solvation free energy, 298 K (in CCO): -5.7 kcal/mol
solvation free energy, 298 K (in CNC(C)=O): -5.35 kcal/mol
solvation free energy, 298 K (in O): -4.69 kcal/mol
solvation free energy, 298 K (in [2H]O[2H]): -4.52 kcal/mol

SMILES: CCc1ccc2ccccc2c1
solvation free energy, 298 K (in O): -2.26 kcal/mol

SMILES: CC(F)F
solvation free energy, 298 K (in CC(C)(C)O): -1.42 kcal/mol
solvation free energy, 298 K (in CC(C)CCO): -1.3 kcal/mol
solvation free energy, 298 K (in CC(C)CO): -1.35 kcal/mol
solvation free energy, 298 K (in CC(C)O): -1.5 kcal/mol
solvation free energy, 298 K (in CCC(C)(C)O): -1.36 kcal/mol
solvation free energy, 298 K (in CCC(C)CO): -1.23 kcal/mol
solvation free energy, 298 K (in CCC(C)O): -1.32 kcal/mol
solvation free energy, 298 K (in CCC(O)CC): -1.24 kcal/mol
solvation free energy, 298 K (in CCCC(C)O): -1.21 kcal/mol
solvation free energy, 298 K (in CCCCCCCC(=O)OCC(COC(=O)CCCCCCC)OC(=O)CCCCCCC): -1.37 kcal/mol
solvation free energy, 298 K (in CCCCCCCCC): -1.08 kcal/mol
solvation free energy, 298 K (in CCCCCCCCO): -1.07 kcal/mol
solvation free energy, 298 K (in CCCCCO): -1.28 kcal/mol
solvation free energy, 298 K (in CCCCO): -1.36 kcal/mol
solvation free energy, 298 K (in CCCO): -1.49 kcal/mol
solvation free energy, 298 K (in CN1CCCC1=O): -2.02 kcal/mol
solvation free energy, 298 K (in CN(C)C=O): -2.11 kcal/mol
solvation free energy, 298 K (in CO): -1.91 kcal/mol
solvation free energy, 298 K (in Cc1ccc(C)cc1): -1.62 kcal/mol
solvation free energy, 298 K (in Cc1cccc(C)c1): -1.63 kcal/mol
solvation free energy, 298 K (in Cc1ccccc1C): -1.62 kcal/mol
solvation free energy, 298 K (in O): -0.12 kcal/mol

SMILES: CCCCCCCCCCCCCCCCCCC
solvation free energy, 298 K (in CC(=O)N(C)C): -12.9 kcal/mol
solvation free energy, 298 K (in CCCCOC(C)=O): -12.7 kcal/mol
solvation free energy, 298 K (in CCO): -10.8 kcal/mol
solvation free energy, 298 K (in O): 4.38 kcal/mol

SMILES: C1COCCOCCOCCOCCOCCO1
solvation free energy, 298 K (in Cc1cccc(C)c1): -12.9 kcal/mol
solvation free energy, 298 K (in O): -15.6 kcal/mol

SMILES: CC(C)(c1ccc(O)cc1)c1ccc(O)cc1
solvation free energy, 298 K (in CCCCCCC): -13 kcal/mol
solvation free energy, 298 K (in CCCCCCCC): -12.9 kcal/mol
solvation free energy, 298 K (in CCCCCCCCCC): -12.8 kcal/mol
solvation free energy, 298 K (in Cc1ccc(C)cc1): -15.5 kcal/mol
solvation free energy, 298 K (in Cc1cccc(C)c1): -15.5 kcal/mol
solvation free energy, 298 K (in Cc1ccccc1C): -15.6 kcal/mol
solvation free energy, 298 K (in O): -14.4 kcal/mol

SMILES: Cc1ccccc1O
solvation free energy, 298 K (in CC(C)CC(C)(C)C): -5.68 kcal/mol
solvation free energy, 298 K (in O): -5.85 kcal/mol

SMILES: CCNc1nc(Cl)nc(NC(C)C)n1
solvation free energy, 298 K (in O): -9.69 kcal/mol

Other lines, results leading:

solvation free energy, 298 K (in CCCCCCC): -5.42 kcal/mol
solvation free energy, 298 K (in CCCCO): -5.8 kcal/mol
solvation free energy, 298 K (in CO): -5.85 kcal/mol
solvation free energy, 298 K (in O): -3.04 kcal/mol
SMILES: CCCCC(=O)CC

solvation free energy, 298 K (in O): 0.12 kcal/mol
SMILES: CC1=CC=C(C(C)C)CC1

solvation free energy, 298 K (in O): -4.82 kcal/mol
SMILES: Cc1cccnc1C

solvation free energy, 298 K (in O): -18.2 kcal/mol
SMILES: Nc1ccc(S(=O)(=O)Nc2nccs2)cc1

solvation free energy, 298 K (in O): -0.25 kcal/mol
SMILES: FC(F)(F)c1ccccc1

solvation free energy, 298 K (in O): 0.87 kcal/mol
SMILES: CC1(C)C2CC3C(C2)C31C

solvation free energy, 298 K (in C=CCCCCCCCCCCCCCC): -3.7 kcal/mol
solvation free energy, 298 K (in CC#N): -2.7 kcal/mol
solvation free energy, 298 K (in CN1CCCC1=O): -2.66 kcal/mol
solvation free energy, 298 K (in O): 2.88 kcal/mol
SMILES: CCCC(C)(C)C

solvation free energy, 298 K (in O): -9.37 kcal/mol
SMILES: CCCOC(=O)c1ccc(O)cc1

solvation free energy, 298 K (in O): -0.38 kcal/mol
SMILES: CC1=CCC2C(C)=CCC(C(C)C)C2C1 (centres undefined)

solvation free energy, 298 K (in O): -4.01 kcal/mol
SMILES: Clc1cccnc1

solvation free energy, 298 K (in CCCCCCCC): -4.63 kcal/mol
solvation free energy, 298 K (in CCCCCCCCCC): -4.56 kcal/mol
SMILES: CC(C)CC(C)O (centres undefined)

solvation free energy, 298 K (in O): -4.08 kcal/mol
SMILES: CC(C)C(=O)CC(=O)C(C)C

solvation free energy, 298 K (in O): -5.73 kcal/mol
SMILES: CCCNCc1ccc(C)cc1

solvation free energy, 298 K (in O): -6.34 kcal/mol
SMILES: NCc1ccccc1

solvation free energy, 298 K (in O): -11 kcal/mol
SMILES: NC(=O)c1ccccc1

solvation free energy, 298 K (in C=CCCCCCCCCCCCCCC): -4.07 kcal/mol
solvation free energy, 298 K (in CC#N): -3.02 kcal/mol
solvation free energy, 298 K (in O): 2.61 kcal/mol
SMILES: CCC(CC)CC

solvation free energy, 298 K (in O): -17 kcal/mol
SMILES: O=P(c1ccccc1)(c1ccccc1)c1ccccc1

solvation free energy, 298 K (in O): -6.89 kcal/mol
SMILES: COc1cccc(C=O)c1O

solvation free energy, 298 K (in CC(C)CCCC(C)CCCC(C)CCCCC(C)CCCC(C)CCCC(C)C): -5.78 kcal/mol
solvation free energy, 298 K (in CCCCCC): -5.84 kcal/mol
solvation free energy, 298 K (in CCCCCCCCCCCCCCCC): -5.73 kcal/mol
SMILES: Cc1cccc(O)c1

solvation free energy, 298 K (in O): -11.6 kcal/mol
SMILES: CN(C)CCC(c1ccc(Br)cc1)c1ccccn1 (centres undefined)

solvation free energy, 298 K (in O): -9.63 kcal/mol
SMILES: c1c[nH]cn1

solvation free energy, 298 K (in CC(C)CC(C)(C)C): -4.95 kcal/mol
solvation free energy, 298 K (in O): -4.94 kcal/mol
SMILES: Cc1ccncc1

solvation free energy, 298 K (in O): -0.8 kcal/mol
SMILES: COC(OC)(OC)C(F)(F)F
